Values quoted from earlier work, collected in patent US20090030403A1, “Methods and Systems for Attenuating the Tolerance Response to a Drug” (priority 2007, published 2009).
Where two headings read alike, the source gives them in different places.

How the values were obtained:
[1] = not given; remark: listed apart in the source
[2] = test system: maximal electroshock seizures; details: compared with ethosuximide
[3] = test system: sodium channels; details: in vitro
[4] = test system: T-type Ca^2+ currents; details: in vitro
[5] = test system: GABA/benzodiazepine receptor ionophore complex; details: in vitro
[6] = test system: cultured mouse spinal cord neurons; details: 10-30 μg/mL
[7] = test system: rat hippocampal slices; details: 10-30 μg/mL
[8] = test system: dopaminergic and serotonergic neurotransmission; details: in vivo microdialysis
[9] = test system: partial seizures; details: adjunctive therapy, partial seizures in adults
[10] = test system: carbonic anhydrase
[11] = not given; remark: listed apart in the source
[12] = not given; remark: listed apart in the source
[13] = system responsible for the drug's metabolism
[14] = system removing the drug or its metabolites

Compound: O=C1CN=C(c2ccccc2)c2cc([N+](=O)[O-])ccc2N1 [Nitrazepam]
- Excretion (in vivo): Renal
- Half life (in vivo): 20 to 40 h
- Metabolism [13]: Hepatic

Compound: CCC1(c2ccccc2)NC(=O)N(C)C1=O (centres unmarked) [Mephenytoin]
- Half life (in vivo): 7 h

Compound: NC(=O)N1c2ccccc2C=Cc2ccccc21 [Carbamazepine]
- Excreted unchanged (in urine where stated): 2-3% excreted unchanged in urine
- Half life (in vivo): 25 to 65 h
- Metabolism [13]: hepatic CYP3A4 to active epoxide form

Compound: CCC1(C)CC(=O)NC1=O (centres unmarked) [Ethosuximide]
- Bioavailability (in vivo): 93%[1]
- Half life (in vivo): 53 h
- Excretion [14]: Renal (20%)
- Metabolism [13]: Hepatic (CYP3A4, CYP2E1)
- Plasma concentration of the drug during long term therapy ([1]; per daily dose of 1 mg/kg): about 2 μg/ml

Compound: NS(=O)(=O)c1ccc(N2CCCCS2(=O)=O)cc1 [Sultiame]
- Half life (in vivo): 24 hour hours
- Bioavailability (oral): 100% (oral)
- Excretion [14]: Fecal (10%) and renal (90%)
- Metabolism [13]: Hepatic secretion

Compound: NC(=O)OCC(COC(N)=O)c1ccccc1 [Felbamate]
- Bioavailability (in vivo): >90%
- Half life (in vivo): 20 to 23 h
- Metabolism [13]: Hepatic

Compound: CC(C)C[C@H](CN)CC(=O)O [Pregabalin]
- Bioavailability (in vivo): ≧90%
- Half life (in vivo): 5 to 6.5 h
- Excretion [14]: Renal
- Metabolism [13]: Negligible

Compound: CN1C(=O)CC(C)(c2ccccc2)C1=O (centres unmarked) [Mesuximide]
- Activity against maximal electroshock seizures [2]: more active against maximal electroshock seizures
- Half life (active metabolite): 28 to 38 h (active metabolite)
- Half life (in vivo): 1.4 to 2.6 h (mesuximide)
- Excretion [14]: Renal
- Metabolism [13]: Hepatic (demethylation and glucuronidation)

Compound: CC(=O)Nc1nnc(S(N)(=O)=O)s1 [Acetazolamide]
- Half life (in vivo): 3 to 9 h

Compound: CC[C@@H](C(N)=O)N1CCCC1=O [Levetiracetam, α-ethyl-2-oxo-1-pyrrolidineacetamide]
- Half life (in vivo): 6 to 8 h
- Excretion [14]: Renal
- Metabolism [13]: Renal

Compound: O=C1Nc2ccc(Cl)cc2C(c2ccccc2Cl)=NC1O (centres unmarked) [Lorazepam]
- Half life (in vivo): 10 to 20 h
- Excretion [14]: Renal
- Metabolism [13]: Hepatic

Compound: NS(=O)(=O)Cc1noc2ccccc12 [Zonisamide, 1,2-benzisoxazole-3-methanesulfonamide]
- Effect on sodium channels [3]: blocks sodium channels
- Effect on T-type Ca2+ currents [4]: reduces voltage-dependent, transient inward currents
- Binding to GABA/benzodiazepine receptor ionophore complex [5]: binds to the GABA/benzodiazepine receptor ionophore complex in an allosteric fashion
- Chloride flux [5]: does not produce changes in chloride flux
- Synaptically-driven electrical activity [6]: suppresses synaptically-driven electrical activity
- Postsynaptic GABA or glutamate responses ([6]; cultured mouse spinal cord neurons): without affecting
- Neuronal or glial uptake of [3H]-GABA [7]: without affecting
- Dopaminergic and serotonergic neurotransmission [8]: facilitates both dopaminergic and serotonergic neurotransmission
- Effective doses in controlled trials [9]: 100 to 600 mg/day
- Half life (in red blood cells): 105 h
- Excretion [14]: Renal
- Metabolism [13]: Hepatic
- Carbonic anhydrase inhibiting activity [10]: weak

Compound: NC(=O)CCC/N=C(\c1ccc(Cl)cc1)c1cc(F)ccc1O [Progabide]
- Bioavailability (in vivo): 0.6
- Half life (in vivo): 4 h
- Excretion [14]: Renal
- Metabolism [13]: Hepatic

Compound: O=C1NC(=O)C(c2ccccc2)(c2ccccc2)N1 [Phenytoin, Diphenylhydantoin]
- Half life (in vivo): 22 h
- Bioavailability (oral): 70-100%
- Bioavailability (rectal and intravenous administration): 24.4%
- Excretion [14]: Primarily through the bile
- Metabolism [13]: hepatic
- Concentration at which toxic effects such as nystagmus develop ([1]; in vivo): around 20 μg/ml
- Therapeutic (plasma) concentration for control of seizures ([1]; in vivo): above 10 μg/ml

Compound: CC1(C)O[C@@H]2[C@@H](CO[C@@]3(COS(N)(=O)=O)OC(C)(C)O[C@@H]23)O1 [Topiramate, 2,3:4,5-bis-O-(1-methylethylidene)-beta-D-fructopyranose sulfamate]
- Half life (in vivo): 19 to 23 h
- Metabolism, hepatic share (in vivo): 30%

Compound: Cc1ncc2n1-c1ccc(Cl)cc1C(c1ccccc1F)=NC2 [Midazolam]
- Excretion (in vivo): Renal
- Half life (in vivo): 1.8 to 6.4 h
- Metabolism (in vivo): Hepatic
- Bioavailability (in vivo, im): I.M. 90%+
- Bioavailability (in vivo, po): Oral ~36%
- Time to Clinical Onset ([11]; Buccal): 5 to 8 min
- Time to Clinical Onset ([11]; Intramuscular): 1 to 5 min
- Time to Clinical Onset ([11]; Intravenous): 1 to 5 min

Compound: O=C1CN=C(c2ccccc2Cl)c2cc([N+](=O)[O-])ccc2N1 [Clonazepam]
- Bioavailability (in vivo): 0.9
- Excretion (in vivo): Renal
- Half life (in vivo): 30 to 40 h
- Metabolism (in vivo): Hepatic CYP3A4

Compound: O=C(O)C1N=C(c2ccccc2)c2cc(Cl)ccc2NC1=O (centres unmarked) [Clorazepate]
- Bioavailability (in vivo): 0.91
- Half life (in vivo): 36 to 100 h
- Excretion [14]: Renal
- Metabolism [13]: Hepatic

Compound: NCC1(CC(=O)O)CCCCC1 [Gabapentin]
- Bioavailability (in vivo): 60% for 0.9 g daily to 27% for 4.8 g daily dose
- Bioavailability (absorption in words) (in vivo): Rapid, in part by saturable carrier-mediated L-
- Excretion (in vivo): Renal
- Food increases absorption by (in vivo): Food increases absorption by 14%
- Half life (in vivo): 5 to 7 h
- Metabolism [13]: not appreciably metabolized

Compound: CCC1(c2ccccc2)C(=O)NC(=O)NC1=O [Phenobarbital]
- Bioavailability (in vivo): >95%
- Excretion (in vivo): Renal and fecal
- Half life (in vivo): 53 to 118 h
- Plasma concentration during long term therapy ([1]; adults, per daily dose of 1 mg/kg): about 10 μg/ml

Compound: CCC1(C)OC(=O)N(C)C1=O (centres unmarked) [Paramethadione]
- Protein binding (in words) [12]: Not significant

Compound: C=CC(N)CCC(=O)O (centres unmarked) [Vigabatrin]
- Bioavailability (in vivo): 80-90%
- Excretion [14]: Renal
- Metabolism [13]: Almost no metabolic transformation occurs
- Half life (the elderly): 12 to 13 h
- Half life (young adults): 5 to 8 h

Compound: CCC(C)C(CC)C(N)=O (centres unmarked) [Valnoctamide]
- Bioavailability (in vivo): 94%[1]
- Half life (in vivo): 10 h
- Metabolism [13]: Hepatic

Compound: Nc1nnc(-c2cccc(Cl)c2Cl)c(N)n1 [Lamotrigine]
- Half life (healthy adults): 24 to 34 h (healthy adults)
- Excretion [14]: Renal
- Metabolism [13]: Hepatic

Compound: CCCC(C)(COC(N)=O)COC(N)=O [Meprobamate]
- Half life (in vivo): 10 h
- Excretion [14]: Renal
- Metabolism [13]: Hepatic

Compound: NC(=O)NC(=O)Cc1ccccc1 [Phenacemide]
- Half life (in vivo): 22 to 25 h

Compound: CN1C(=O)CC(c2ccccc2)C1=O (centres unmarked) [Phensuximide]
- Activity against maximal electroshock seizures [2]: more active against maximal electroshock seizures

Compound: CCN1C(=O)NC(c2ccccc2)C1=O (centres unmarked) [Ethotoin]
- Half life (in vivo): 3 to 9 h

Compound: CCC1(c2ccccc2)C(=O)NCNC1=O [Primidone]
- Bioavailability (in vivo): >90%
- Half life (in vivo): Primidone: 5-15 hours,
- Excretion [14]: Renal
- Metabolism [13]: Hepatic
- Plasma concentration of the drug during long term therapy ([1]; per daily dose of 1 mg/kg): about 1 μg/ml

Compound: Cc1ccsc1C(=CCCN1CCC[C@@H](C(=O)O)C1)c1sccc1C [Tiagabine]
- Half life (in vivo): 7 to 9 h
- Excretion [14]: Fecal and renal
- Metabolism [13]: Hepatic (CYP450 system)

Compound: CCOc1ccc2nc(S(N)(=O)=O)sc2c1 [Ethoxzolamide]
- Half life (in vivo): 2.5 to 5.5 h
- Protein binding [12]: ~89%

Compound: CN1C(=O)CC(=O)N(c2ccccc2)c2cc(Cl)ccc21 [Clobazam]
- Half life (in vivo): 18 h
- Excretion [14]: Renal
- Metabolism [13]: Hepatic

Compound: NC(=O)N1c2ccccc2CC(=O)c2ccccc21 [Oxcarbazepine]
- Half life (healthy adults): 1 to 5 h (healthy adults)
- Bioavailability (in vivo): >95%

Compound: CN1C(=O)CN=C(c2ccccc2)c2cc(Cl)ccc21 [Diazepam]
- Time to Clinical Onset ([11]; Rectal): 5 to 15 min

Compound: O=C1NC(c2ccccc2)(c2ccccc2)C(=O)N1COP(=O)(O)O [Fosphenytoin]
- Half life (to convert to phenytoin): 15 minutes to convert to phenytoin
